Source: US12343319B2, “Compositions and methods for treatment of diseases and disorders” (Atai Therapeutics Inc., priority 2023, dated 2025)
Where two headings read alike, the source gives them in different places.

Experiments:
Male Sprague-Dawley rats = assay: Rat forced swim test, immobility frequency; format: in vivo; conditions: 3 and 30 mg/kg, i.p. at 23.5, 16 and 0.5 hours prior; 5-minute swim test
Method: Male Sprague-Dawley rats were placed individually in clear acrylic swim chambers (40 cm height×20.3 cm diameter) filled to 16 cm for a 15-minute pre-swim session on day 1 and filled to 30 cm for a 5-minute swim test session 24 hours later. Rats (n=10 per treatment group) were administered compound 2-1 (3, 10, 30 mg/kg, i.p., 1 mL/kg, based on weight of the free base) or vehicle (40% (w/v) 2-HPBCD in water, i.p.) at 23.5, 16 and 0.5 hours prior to the swim test. The rapid-acting antidepressant, ketamine (10 mg/kg, i.p.), was included in the study as a positive control condition and injected once 24 hours prior to the swim test.

Male WKY rats = assay: Confirmatory 30 mg/kg sleep, locomotor, body temperature and qEEG study in WKY rats; format: in vivo, rat; conditions: 30 mg/kg IP
Method: The aim of the current study was to confirm the effects of compound 2-2 (30 mg/kg) on sleep-wake behavior and EEG brain oscillatory power in an independent cohort of male Wistar Kyoto rats. The study was carried out similarly to Examples 7 and 9 with differences noted below. Male WKY rats (n=8, 323-352 g at the start of dosing) were housed in groups of 2-3 animals per cage with standard housing conditions.

[1] = Terminal plasma and brain concentrations in mice; format: in vivo; conditions: C57BL/6J, mouse, intraperitoneal
Method: Prior to the onset of procedures, animals were weighed and allocated into 5 groups by a statistician based on body weight. Animals sharing a cage were dosed with the same drug treatments to avoid cross contamination between groups. Animals were dosed intraperitoneally with psilocybin (3 mg/kg), or one of 3 doses of compound 2-2 (1 mg/kg, 3 mg/kg, 10 mg/kg). Dosing was to a timed scheduled. Animals were weighed prior to dosing and the body weight recorded. Food and water intake were not monitored. The animals were dosed at time “0” and then returned to the home cage. Behaviors of note after dosing were recorded. Each animal was humanely killed (by exposure to increasing CO2 concentration and confirmation of death by cervical dislocation) to allow terminal blood sampling to take place 15 minutes after dosing. The brain sampling was performed immediately after blood sampling was completed for each animal.
Post-mortem blood samples (approx. 0.5 ml) were collected from all animals by cardiac puncture for DMPK analysis, dispensed into a LH-coated tube. The blood samples were gently inverted, centrifuged promptly (2400 g for 5 minutes at 4° C.) and 150 μl of plasma from each animal was placed into a 96-well plate. Plasma samples from group B were stabilized with DTT (50 mM; 1:10). All plasma samples were frozen on dry ice and stored at approximately −80° C. prior to analysis. Whole brains were removed from all animals, rinsed briefly with saline and blot dried. The left and right frontal cortices (˜25 mg each frontal cortex) were dissected separately from the brain, weighed, placed in microtubes, frozen on dry ice and stored at −20° C. to measure receptor occupancy. The remaining brain tissue was weighed, placed in homogenization tubes, frozen on dry ice, and stored at −80° C. prior to transferring (on dry ice) to Signature DMPK with the plasma samples.

[2] = biological target: T1, 5-HT2A receptors in the mouse frontal cortex (Mus musculus, UniProt P35363); assay: Ex vivo 5-HT2A receptor occupancy ([3H]cimbi-36) in mouse frontal cortex
T1 construct: Left frontal cortices from each animal were homogenized individually; from tissue
T1 sequence (P35363 whole entry): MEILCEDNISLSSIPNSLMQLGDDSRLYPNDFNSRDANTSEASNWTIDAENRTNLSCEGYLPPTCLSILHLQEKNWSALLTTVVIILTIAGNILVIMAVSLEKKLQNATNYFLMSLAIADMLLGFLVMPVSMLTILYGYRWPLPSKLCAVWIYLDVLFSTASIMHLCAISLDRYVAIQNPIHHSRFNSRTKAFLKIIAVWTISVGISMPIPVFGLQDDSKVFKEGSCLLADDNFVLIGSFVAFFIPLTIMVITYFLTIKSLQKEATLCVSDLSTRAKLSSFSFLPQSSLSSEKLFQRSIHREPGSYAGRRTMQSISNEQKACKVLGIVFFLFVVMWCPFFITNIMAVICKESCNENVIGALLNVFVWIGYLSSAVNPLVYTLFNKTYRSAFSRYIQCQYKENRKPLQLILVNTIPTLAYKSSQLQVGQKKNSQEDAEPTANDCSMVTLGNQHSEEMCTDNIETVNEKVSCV

COc1ccc(OC)c(CCNCc2cc(C)cc(Cl)c2)c1 [Compound 2-1, N-(3-chloro-5-methylbenzyl)-2-(2,5-dimethoxyphenyl)ethan-1-amine]
frequency of immobility compared to vehicle (Male Sprague-Dawley rats): significantly decreased

COc1ccc(OC)c(CCNCc2cc(C)cc(F)c2)c1 [Compound 2-2, 2-(2,5-dimethoxyphenyl)-N-(3-fluoro-5-methylbenzyl)ethan-1-amine]
NREM sleep latency (Male WKY rats): no significant effect | body temperature (Male WKY rats): transiently reduced | locomotion (Male WKY rats): did not affect | concentration at 15 min ([1]; brain, 1 mg/kg, 1 mg/kg IP, read-out: Terminal Brain Conc (ng/g) at 15 min, Mean): 182 ng/g | concentration at 15 min ([1]; brain, 1 mg/kg, 1 mg/kg IP, read-out: Terminal Brain Free Concentration (uM) at 15 min, Mean): 0.01 µM | concentration at 15 min ([1]; brain, 1 mg/kg, 1 mg/kg IP, read-out: Terminal Brain Total Concentration (uM) at 15 min, Mean): 0.6 µM | concentration at 15 min ([1]; brain, 3 mg/kg, 3 mg/kg IP, read-out: Terminal Brain Free Concentration (uM) at 15 min, Mean): 0.039 µM | concentration at 15 min ([1]; brain, 10 mg/kg, 10 mg/kg IP, read-out: Terminal Brain Conc (ng/g) at 15 min, Mean): 3280 ng/g | concentration at 15 min ([1]; brain, 10 mg/kg, 10 mg/kg IP, read-out: Terminal Brain Free Concentration (uM) at 15 min, Mean): 0.175 µM | concentration at 15 min ([1]; brain, 10 mg/kg, 10 mg/kg IP, read-out: Terminal Brain Total Concentration (uM) at 15 min, Mean): 10.8 µM | concentration at 15 min ([1]; plasma, 1 mg/kg, 1 mg/kg IP, read-out: Terminal Plasma Conc (ng/mL) at 15 min, Mean): 60.1 ng/mL | concentration at 15 min ([1]; plasma, 1 mg/kg, 1 mg/kg IP, read-out: Terminal Plasma Free Concentration (uM) at 15 min, Mean): 0.016 µM | concentration at 15 min ([1]; plasma, 1 mg/kg, 1 mg/kg IP, read-out: Terminal Plasma Total Concentration (uM) at 15 min, Mean): 0.2 µM | concentration at 15 min ([1]; plasma, 3 mg/kg, 3 mg/kg IP, read-out: Terminal Plasma Free Concentration (uM) at 15 min, Mean): 0.082 µM | concentration at 15 min ([1]; plasma, 10 mg/kg, 10 mg/kg IP, read-out: Terminal Plasma Conc (ng/mL) at 15 min, Mean): 1020 ng/mL | concentration at 15 min ([1]; plasma, 10 mg/kg, 10 mg/kg IP, read-out: Terminal Plasma Free Concentration (uM) at 15 min, Mean): 0.277 µM | concentration at 15 min ([1]; plasma, 10 mg/kg, 10 mg/kg IP, read-out: Terminal Plasma Total Concentration (uM) at 15 min, Mean): 3.38 µM | EC50 [2]: 1.93 µM | ex vivo occupancy of 5-HT2A receptors (RO) ([2]; across 1, 3, 10 mg/kg IP): 21-60% | brain concentration at 50% 5-HT2A RO ([2]; in brain): 1608 ng/g | receptor occupancy at 1 mg/kg ([2]; mouse, 1 mg/kg IP, 15 minutes post dosing, read-out: % Receptor Occupancy (RO)): 21% | remaining activity at 1 mg/kg ([2]; mouse, 1 mg/kg IP, 15 minutes post dosing, read-out: % of Control Binding): 79% | receptor occupancy at 3 mg/kg ([2]; mouse, 3 mg/kg IP, 15 minutes post dosing, read-out: % Receptor Occupancy (RO)): 37% | remaining activity at 3 mg/kg ([2]; mouse, 3 mg/kg IP, 15 minutes post dosing, read-out: % of Control Binding): 63% | receptor occupancy at 10 mg/kg ([2]; mouse, 10 mg/kg IP, 15 minutes post dosing, read-out: % Receptor Occupancy (RO)): 60% | remaining activity at 10 mg/kg ([2]; mouse, 10 mg/kg IP, 15 minutes post dosing, read-out: % of Control Binding): 40% | ED50 ([2]; mouse, IP, non-linear regression, read-out: dose at 50% 5-HT2A RO): 6.14 mg/kg
